Assay results as given in PubChem BioAssay (NCI).
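Each compound was tested at five concentrations against cells in 96-well plates for 48 hours. The concentration for 50% growth inhibition is given as GI50. TGI is the concentration that stops growth completely.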

Key:
Experiment in all cases: DTP human tumour cell line panel, 48 h
HCT-15 colon = tested on: HCT-15 colon
SK-MEL-28 melanoma = tested on: SK-MEL-28 melanoma
OVCAR-5 ovarian = tested on: OVCAR-5 ovarian
NCI/ADR-RES ovarian = tested on: NCI/ADR-RES ovarian
COLO 205 colon = tested on: COLO 205 colon
RPMI-8226 leukemia = tested on: RPMI-8226 leukemia
UACC-62 melanoma = tested on: UACC-62 melanoma
HS 578T breast = tested on: HS 578T breast
SNB-75 CNS = tested on: SNB-75 CNS
HL-60(TB) leukemia = tested on: HL-60(TB) leukemia

Row | Structure (SMILES) | GI50 (HCT-15 colon) [µM] | TGI (HCT-15 colon) [µM] | GI50 (SK-MEL-28 melanoma) [µM] | TGI (SK-MEL-28 melanoma) [µM] | GI50 (OVCAR-5 ovarian) [µM] | TGI (OVCAR-5 ovarian) [µM] | GI50 (NCI/ADR-RES ovarian) [µM] | TGI (NCI/ADR-RES ovarian) [µM] | GI50 (COLO 205 colon) [µM] | TGI (COLO 205 colon) [µM] | GI50 (RPMI-8226 leukemia) [µM] | TGI (RPMI-8226 leukemia) [µM] | GI50 (UACC-62 melanoma) [µM] | TGI (UACC-62 melanoma) [µM] | GI50 (HS 578T breast) [µM] | TGI (HS 578T breast) [µM] | GI50 (SNB-75 CNS) [µM] | TGI (SNB-75 CNS) [µM] | TGI (HL-60(TB) leukemia) [µM] | GI50 (HL-60(TB) leukemia) [µM]
1 | C[n+]1cc2cc3c(cc2c2ccccc21)OCO3 | 70.2 | > 100 | 3.49 | 14.3 | 16.5 | > 100 | > 100 | > 100 | 4.48 | 24 | 3.39 | 36.4 | 3.97 | 16.4 | 2 | 7.71 | 2.22 | 9.6 |  | 
2 | Cc1ccccc1NC(=O)C(=O)CC(=O)C1CCOC1=O (configuration not stated) |  | > 100 |  | > 100 |  | > 100 |  |  |  | > 100 |  | > 100 |  | > 100 |  |  |  | > 100 | > 100 | 
3 | CCOC(=O)C1=C(C)N(NC(=O)OC)C2(N)N(NC(=O)OC)C(C)=C(C(=O)OCC)C12C#N (configuration not stated) |  | > 100 |  | > 100 |  | > 100 |  |  |  |  |  | > 100 |  | > 100 |  |  |  | > 100 | > 100 | 
4 | Cc1cc(Cl)cc2c1NC(=O)C2(O)CC(=O)c1ccc(F)cc1 (configuration not stated) |  | > 100 |  | > 100 |  | > 100 |  |  |  | > 100 |  | 65.3 |  | 42 |  |  |  | > 100 |  | 
5 | Cc1cccc(Cl)c1NC(=O)c1cccc([N+](=O)[O-])c1O |  | > 100 |  | > 100 |  | > 100 |  |  |  | > 100 |  | 64.6 |  | 93.9 |  |  |  | > 100 |  | 
6 | OCCSCC/C(=N\N=C(/CCSCCO)c1ccccc1)c1ccccc1 |  | > 100 |  | > 100 |  | > 100 |  |  |  | > 100 |  | > 100 |  | > 100 |  |  |  |  | > 100 | 
7 | CCOC(=O)N1CCc2cc(OC)c(OC)cc2/C1=C/c1ccc(OC)c(OC)c1 |  | > 100 |  | > 100 |  | > 100 |  |  |  | > 100 |  | 56.5 |  | > 100 |  |  |  | > 100 | 65.1 | 
8 | Cc1ccc(S(=O)(=O)N[C@@H](Cc2ccccc2)C(=O)CCl)cc1 | 10.8 | 27.5 |  | 53.7 | 13.7 | 65.9 | 22.3 | 65.7 | 19.9 | 52.3 |  |  |  |  | 21.2 | 64.1 | 16.7 | 35.8 |  | 
9 | Cc1cc(S(=O)(=O)Nc2nc3ccccc3[nH]2)c(SCc2ccccc2)cc1Cl | > 100 | > 100 | > 100 | > 100 | > 100 | > 100 | > 100 | > 100 | > 100 | > 100 | 28.9 | > 100 | > 100 | > 100 | 78.1 | > 100 |  |  | > 100 | > 100
10 | O=C([CH-]C(=O)c1ccccc1)c1ccccc1.[CH3-].[CH3-].[CH3-].[Sn+4] | 5.51 | 27.3 | 15.6 | 47.1 | 37.2 | 86.5 |  |  | 17.8 | 35.8 | 4.99 | 26.2 | 12.2 | 65.8 |  |  | 19.4 | > 100 | 16 | 2.67
11 | Nc1cc(N)cc(Cc2ccccc2)c1 |  | > 100 |  | > 100 |  | > 100 |  | > 100 |  | > 100 |  |  |  |  |  | > 100 |  |  | > 100 | 
12 | C=C(CN(C)Cc1ccccc1)c1ccc(C(=O)Nc2ccccc2N)cc1 | 2.2 | 12.2 | 7.79 | > 50 | 5.46 | 21.4 | 1.07 | 4.94 | 7.72 | 17.6 | 1.46 | > 50 | 2.16 | 18.4 | 3.66 | 33.6 |  |  |  | 
13 | O=C1[C@@H]2C(c3ccncc3)=NO[C@@H]2C(=O)N1c1ccc(Cc2ccc(N3C(=O)[C@H]4C(c5ccncc5)=NO[C@H]4C3=O)cc2)cc1 |  | > 100 |  | > 100 |  | > 100 |  |  |  | > 100 |  | > 100 |  | > 100 |  |  |  | > 100 | > 100 | 
14 | Clc1ccc(-c2nc(C(Cl)Cl)nc3cc(-c4ccccc4)nn23)cc1 | 1.3 | > 50 |  |  | 1.53 | > 50 | 1.27 | > 50 |  |  | 2.54 | > 50 |  |  | 1.38 | > 50 | 0.957 | > 50 |  | 
15 | C/C(CC(=O)Nc1ccccc1)=N\NC(N)=S |  |  |  | > 100 |  | > 100 |  |  |  | > 100 |  | > 100 |  | > 100 |  |  |  | > 100 | > 100 | 
16 | CSC(=NC#N)S/C=C/C(=O)c1cccc2ccccc12 | 27.4 | > 100 | 28.7 | 73.4 | 28.3 | 82.9 | 40.8 | > 100 | 34.3 | > 100 | 25 | > 100 | 27.7 | > 100 | 40.4 | > 100 |  |  |  | 
17 | COC(=O)[C@@H]1[C@H](O)[C@H](C)[C@H](O)[C@H](C)/C=C\C=C(C)C(=O)Nc2c(C)c(OC(C)=O)c3c(c2O)C(=O)C(C)=C2OCOC(=C23)C(C)=C[C@@](C)(O)[C@H](O)[C@@H](C)[C@H]1OC(C)=O |  |  |  | > 100 |  | > 100 |  |  |  |  |  | 56.9 |  |  |  | > 100 |  | > 100 | 34 | 
18 | CC1(C)Cc2nnsc2C2=C1C(=O)CCS2 |  | > 100 |  | > 100 |  | > 100 |  |  |  | > 100 |  | > 100 |  | > 100 |  |  |  | > 100 | > 100 | 
19 | N#CSCC1CC(O)(c2ccccc2)CC(c2ccc(Cl)cc2)O1 (configuration not stated) | 2.4 | 8.05 | 1.84 | 4.57 | 12.8 | 26 |  |  | 1.91 | 3.92 | 1.26 | 5.39 | 3.31 | 10.9 | 3.24 | 13.2 | 3.58 | 13.3 | 5.3 | 2.52
